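Five compound concentrations were applied to cells in 96-well plates for 48 hours; endpoints were derived by simple linear interpolation of the resulting dose-response curve. GI50 marks 50% less growth. The concentration for full growth arrest is given as TGI.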
Tests used:
Experiment in all cases: growth of human tumour cells (NCI), 48 h
A498 renal = system: A498 renal
A549 NSCLC = system: A549 NSCLC
MDA-MB-231 breast = system: MDA-MB-231 breast
MOLT-4 leukemia = system: MOLT-4 leukemia
OVCAR-8 ovarian = system: OVCAR-8 ovarian
PC-3 prostate = system: PC-3 prostate
U251 CNS = system: U251 CNS
UO-31 renal = system: UO-31 renal
DLD-1 colon = system: DLD-1 colon
DMS 273 small cell lung = system: DMS 273 small cell lung
KM20L2 colon = system: KM20L2 colon
SNB-78 CNS = system: SNB-78 CNS

| SMILES | GI50 (A498 renal) [µM] | TGI (A498 renal) [µM] | GI50 (A549 NSCLC) [µM] | TGI (A549 NSCLC) [µM] | GI50 (MDA-MB-231 breast) [µM] | TGI (MDA-MB-231 breast) [µM] | GI50 (MOLT-4 leukemia) [µM] | TGI (MOLT-4 leukemia) [µM] | GI50 (OVCAR-8 ovarian) [µM] | TGI (OVCAR-8 ovarian) [µM] | GI50 (PC-3 prostate) [µM] | TGI (PC-3 prostate) [µM] | GI50 (U251 CNS) [µM] | TGI (U251 CNS) [µM] | GI50 (UO-31 renal) [µM] | TGI (UO-31 renal) [µM] | TGI (DLD-1 colon) [µM] | TGI (DMS 273 small cell lung) [µM] | TGI (KM20L2 colon) [µM] | TGI (SNB-78 CNS) [µM] |
| --- | --- | --- | --- | --- | --- | --- | --- | --- | --- | --- | --- | --- | --- | --- | --- | --- | --- | --- | --- | --- |
| COc1cc(-c2nc3ccccc3o2)cc(CN2CCCCC2)c1O | 10 | 24.5 | 1.63 | 4.12 | 12.2 | > 100 | 4.99 | 37.4 | 11.4 | 94.3 | 0.664 | > 100 | 1.84 | 9.54 | 1.92 | 21.8 | – | – | – | – |
| O=C(NCCOCCOCCOCCNC(=O)c1cc2c(o1)C(=O)c1ccccc1C2=O)NC12CC3CC(CC(C3)C1)C2 | 1.69 | 3.3 | 0.517 | 2.34 | 3.04 | 16.6 | 2.87 | 8.04 | 1.44 | 8.34 | 1.95 | 13.4 | 2.04 | 5 | 1.69 | 3.77 | – | – | – | – |
| O=C(CC1C(=O)Nc2ccccc2S1(=O)=O)Nc1ccc(Cl)cc1 (stereo not drawn) | – | > 100 | – | > 100 | – | – | – | 37.6 | – | > 100 | – | – | – | 34 | – | 66.9 | > 100 | 45.6 | > 100 | 93.8 |
| CC(=O)NNc1nc(C)c(C(=O)NNC(=O)C(=O)Nc2c([N+](=O)[O-])ccc(C)c2C)s1 | – | > 100 | – | > 100 | – | – | – | > 100 | – | > 100 | – | – | – | > 100 | – | > 100 | > 100 | > 100 | > 100 | > 100 |
| CCCCCCCCCCCCCCCC(=O)OCCOCCOCCOCCOCCOC(=O)CCCCCCCCCCCCCCC | – | > 100 | – | > 100 | – | – | – | > 100 | – | > 100 | – | – | – | > 100 | – | > 100 | > 100 | > 100 | > 100 | > 100 |
| O=C1C=C(OCC=C(C(F)(F)F)C(F)(F)F)c2ccccc2C1=O | 4.36 | 16.6 | 5.91 | 27 | 1.9 | 4.2 | 2.35 | 5.38 | 1.63 | 3.12 | 1.92 | 5.91 | 1.84 | 3.83 | 1.53 | 3.1 | – | – | – | – |
| O=C(N/C(=C\c1ccccc1O)c1nc2ccccc2[nH]1)c1ccccc1 | – | > 100 | – | > 100 | – | – | – | > 100 | – | > 100 | – | – | – | > 100 | – | > 100 | – | > 100 | > 100 | > 100 |
| CC1C=CC(C(N)C(=O)O)O1 (stereo not drawn) | – | > 100 | – | > 100 | – | – | – | > 100 | – | > 100 | – | – | – | > 100 | – | > 100 | > 100 | > 100 | > 100 | > 100 |
| c1ccc(Oc2ccc(Nc3ncc(-c4ccccc4)o3)cc2)cc1 | > 25 | > 25 | > 25 | > 25 | > 25 | > 25 | > 25 | > 25 | > 25 | > 25 | > 25 | > 25 | > 25 | > 25 | > 25 | > 25 | – | – | – | – |
